# Data as given in ChEMBL document CHEMBL1145001, “Angiotensin II AT1 receptor antagonists. Clinical implications of active metabolites” (J Med Chem, 2003).
# How the values were obtained:
# [1] = Effective concentration of compound to stimulate 300% increase of growth hormone secretion; format: functional
# [2] = biological target: T1, Type-1 angiotensin II receptor (Homo sapiens, UniProt P30556); assay: Compound was tested for inhibition against Angiotensin II receptor, type 1
# T1 sequence (P30556 whole entry): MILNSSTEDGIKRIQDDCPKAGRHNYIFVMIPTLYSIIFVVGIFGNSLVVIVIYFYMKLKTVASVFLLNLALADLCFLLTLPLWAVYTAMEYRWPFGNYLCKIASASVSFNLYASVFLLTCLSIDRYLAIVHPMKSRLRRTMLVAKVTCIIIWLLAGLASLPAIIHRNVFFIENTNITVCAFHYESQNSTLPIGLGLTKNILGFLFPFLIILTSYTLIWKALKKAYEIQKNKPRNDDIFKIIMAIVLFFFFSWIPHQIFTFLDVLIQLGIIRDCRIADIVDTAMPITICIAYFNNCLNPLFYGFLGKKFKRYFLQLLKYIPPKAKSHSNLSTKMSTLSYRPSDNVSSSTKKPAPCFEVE
# [3] = Renal clearance value was evaluated; format: ADME, organism-based, Kidney; settings: in vivo
# [4] = Acid dissociation value was evaluated; format: ADME
# [5] = Half life of compound was determined; format: ADME
# [6] = Total clearance value was evaluated; format: ADME, organism-based; settings: in vivo
# [7] = biological target: T2, Type-1 angiotensin II receptor (Homo sapiens) (UniProt P30556); assay: Inhibition against Angiotensin II receptor, type 1
# T2 sequence (whole entry): T1 sequence (P30556 whole entry)
# [8] = biological target: T2, Type-1 angiotensin II receptor (Homo sapiens); assay: Relative binding affinity of compound to Angiotensin II receptor, type 1 was determined
# [9] = Inhibition of calcium calmodulin-dependent cGMP-Phosphodiesterase 1
# [10] = Inhibition of Phosphodiesterase 4
# [11] = Inhibition of bovine cAMP phosphodiesterase; design: species or system Bos taurus
# [12] = Acid dissociation constant was evaluated; format: ADME
# Phosphodiesterase 3 = Phosphodiesterase 3 (Homo sapiens, UniProt Q14432+Q13370); assay: Inhibition of phosphodiesterase 3(PDE 3); format: protein assay
# Phosphodiesterase 4 = Phosphodiesterase 4 (Homo sapiens, UniProt P27815+Q08499+Q07343+Q08493); assay: Inhibition of phosphodiesterase 4 (PDE 4); format: protein assay
# [13] = Absolute bioavailability of compound was determined; format: ADME, organism-based; settings: in vivo; read-out: Bioavailabiility
# [14] = biological target: T1, Type-1 angiotensin II receptor; assay: Inhibition constant against Angiotensin II receptor, type 1 was determined
Compound,CL_renal [3] [mL/s],pKa [4],half-life [5] [h],CLtotal [6] [mL/s],AT1 affinity [7] [nM l-1],Relative binding affinity [8],other results
CNC(=O)NCc1ccccc1-c1ccc(CN2C(=O)[C@H](NC(=O)CC(C)(C)N)CCc3ccccc32)cc1,–,–,–,–,–,–,EC50 [1]: 3 nM
O=C(O)c1nc(CO)nc2c1CCC(=O)N2Cc1ccc(-c2ccccc2-c2nn[nH]n2)cc1,–,–,–,–,–,–,IC50 [2]: 44 nM
CCCCC1=NC2(CCCC2)C(=O)N1Cc1ccc(-c2ccccc2-c2nnn[nH]2)cc1 [IRBESARTAN],0.02,4.7,10,5.1,1.3,–,–
CCCCC(=O)N(Cc1ccc(-c2ccccc2-c2nnn[nH]2)cc1)[C@H](C(=O)O)C(C)C,4.8,3.1,6.1,37,1.4,–,–
CCCCc1nc(Cl)c(CO)n1Cc1ccc(-c2ccccc2-c2nnn[n-]2)cc1.[K+] [LOSARTAN POTASSIUM],1.1,–,1.5,10,6.4,50,IC50 [9]: 100000 nM; IC50 [10]: 26000 nM; IC50 [11]: 139000 nM
CCCCc1nc(Cl)c(C=O)n1Cc1ccc(-c2ccccc2-c2nn[nH]n2)cc1,–,4,–,–,20,–,–
Cc1nc(C)c2c(O)cc(=O)n(Cc3ccc(-c4ccccc4-c4nnn[nH]4)cc3)c2n1 [ENOLTASOSARTAN],–,–,–,–,–,–,pKa [12]: 9.4; IC50 [2]: 0.17 nM
CCCCc1nc(SCc2ccc(-c3ccccc3-c3nn[nH]n3)cc2)c2ccccc2n1,–,–,–,–,–,–,IC50 (Phosphodiesterase 3): 8000 nM; IC50 (Phosphodiesterase 4): 2900 nM
CCOc1nc2cccc(C(=O)OC(C)OC(=O)OC3CCCCC3)c2n1Cc1ccc(-c2ccccc2-c2nn[nH]n2)cc1 (stereo not drawn),–,–,–,–,–,–,AT1 affinity [8]: 280
CCCCc1nc(Cl)c(C(=O)O)n1Cc1ccc(-c2ccccc2-c2nn[nH]n2)cc1 [CARBOXYLIC ACID METABOLITE],0.4,2.8,4.4,0.78,1.3,10,IC50 [11]: 38900 nM
CCCc1nc2c(C)cc(-c3nc4ccccc4n3C)cc2n1Cc1ccc(-c2ccccc2C(=O)O)cc1,< 5,4.5,> 20,19,1,10,bioavailability [13]: 43%
CCCCc1ncc(/C=C(\Cc2cccs2)C(=O)O)n1Cc1ccc(C(=O)O)cc1 [EPROSARTAN],0.6,4,5,2.5,1.5,100,–
CC(O)CCC(=O)N(c1ccc(-c2ccccc2-c2nnn[nH]2)cc1)[C@H](C(=O)O)C(C)C (stereo partly drawn),–,–,–,–,–,–,Ki [14]: 370 nM; IC50 [2]: 470 nM
Cc1nc(C)c2c(n1)N(Cc1ccc(-c3ccccc3-c3nnn[nH]3)cc1)C(=O)CC2 [TASOSARTAN],–,4,11,–,1.2,20,IC50 [2]: 32 nM
CCCCc1nc(Cl)c(CO)n1Cc1ccc(-c2ccccc2-c2nn[nH]n2)cc1 [LOSARTAN POTASSIUM],–,4.9,–,–,–,–,–
CCOc1nc2cccc(C(=O)O)c2n1Cc1ccc(-c2ccccc2-c2nnn[nH]2)cc1,> 7,3.9,> 9,1,0.1,1,–
CC(C)(N)CC(=O)N[C@@H]1CCc2ccccc2N(Cc2ccc(-c3ccccc3-c3nn[nH]n3)cc2)C1=O,–,–,–,–,–,–,EC50 [1]: 3 nM
Cc1nc(C(=O)O)nc2c1CCC(=O)N2Cc1ccc(-c2ccccc2-c2nnn[nH]2)cc1,–,–,–,–,–,–,IC50 [2]: 11 nM
